Reference: patent US8835380B2, “Therapeutic conjugates” (University College Cardiff Consultants Limited, priority 2010, dated 2014)

Columns and labels:
[1] = system: Pseudomonas aeruginosa mucoid strain; experiment: MIC broth microdilution (second mucoid strain, Table 3 r49); type: cell-based; conditions: amylase (100 IU/L) pre-incubation time 0
Procedure: (§1) Antimicrobial activity was measured using broth microdilution in a minimum inhibitory concentration (MIC) assay according to the Clinical and Laboratory Standards Institute (formerly NCCLS; 2003, Methods for Dilution Antimicrobial Susceptibility Tests for Bacteria That Grow Aerobically, Approved Standard—Sixth Edition. M7A6. Clinical and Laboratory Standards Institute. Wayne, Pa.). Test organisms were suspended in Mueller Hinton cation adjusted broth (100 μL, 1-5×10^4 CFU/mL) and incubated in 96-well microtitre plates in serial two-fold dilutions of the test compounds.
(§2) The antimicrobial activity of dextrin-colistin was also determined following incubation of the conjugate with amylase. Dextrin-colistin conjugates (3 mg/mL colistin eq.) were first incubated with amylase (100 IU/L for up to 48 h at 37° C. in PBS buffer (pH 8.2)).

[2] = biological target: T1, human amylase (Homo sapiens, UniProt P0DUB6); experiment: Release of colistin from dextrin-colistin conjugates by amylase (FPLC); type: in vitro ADME; conditions: amylase 100 IU/L in PBS, 37° C., CMS: hydrolysis in PBS
T1 construct: α-amylase from human saliva; purchased Sigma-Aldrich (Poole, UK); host or cells: human saliva (natural source)
T1 sequence (P0DUB6 16-511): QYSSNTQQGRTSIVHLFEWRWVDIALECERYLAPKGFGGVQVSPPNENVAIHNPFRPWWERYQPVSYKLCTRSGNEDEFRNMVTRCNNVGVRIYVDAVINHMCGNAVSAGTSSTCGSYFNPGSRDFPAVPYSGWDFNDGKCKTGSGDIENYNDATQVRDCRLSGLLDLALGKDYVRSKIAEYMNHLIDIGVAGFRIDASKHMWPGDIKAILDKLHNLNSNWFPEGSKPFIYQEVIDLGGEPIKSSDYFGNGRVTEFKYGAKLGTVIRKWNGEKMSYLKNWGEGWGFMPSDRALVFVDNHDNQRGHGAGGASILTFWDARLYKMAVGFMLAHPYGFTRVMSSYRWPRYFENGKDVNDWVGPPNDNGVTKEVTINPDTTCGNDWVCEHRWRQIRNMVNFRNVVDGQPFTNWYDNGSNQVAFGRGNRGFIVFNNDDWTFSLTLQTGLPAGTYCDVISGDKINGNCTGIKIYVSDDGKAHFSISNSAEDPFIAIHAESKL
Procedure: To compare the rate of amylase degradation of dextrin, succinoylated dextrin and dextrin-colistin conjugates, solutions (3 mg/mL in PBS, pH 7.4) of each sample was prepared containing amylase (100 IU/L in PBS) and incubated at 37° C. for up to 48 h. At various time points, samples (300 μL) were taken, immediately snap frozen in liquid nitrogen to stop the reaction and then stored at −20° C. until analysis by GPC and FPLC (conjugates only). Prior to analysis, samples were placed in a water bath (100° C.) for 5 min to denature the enzyme activity of the amylase and stop polymer degradation. The supernatant was then analysed by GPC to determine the change in molecular weight over time and by FPLC to determine the change in free colistin over time.

[3] = system: LPS from E. coli; experiment: LAL assay (endotoxin neutralisation); type: biochemical; conditions: 4 μg/mL
Procedure: A colorimetric assay technique was used in which the clotting reaction of Limulus amoebocyte lysate (LAL) in the presence of LPS was measured spectrophotometrically at 540 nm.
LPS was dissolved in pyrogen free water (0-50 ng/mL) containing colistin, CMS, dextrin-colistin or unmasked dextrin-colistin (4 μg/mL, 100 μL) in pyrogen-free vials. Control samples contained only LPS dissolved in pyrogen-free water. Solutions were mixed well and incubated at 37° C. for 3 h. Reconstituted LAL (100 μL) was then added and the solution mixed well before incubation at 37° C. for 45 min. Next, reconstituted substrate solution (100 μL) was added to each vial, mixed well and incubated for a further 6 min. Finally, the reaction was terminated by addition of reconstituted stop solution and colour stabilisers. Samples (100 μL) were pipetted into the wells of a 96-well microtitre plate (6 wells per sample) and absorption was read spectrophotometrically at 540 nm. The concentration of LPS producing 50% maximal absorption was taken as the ED50.
To study the effect of amylase on the activity of dextrin-colistin conjugates, dextrin-colistin conjugates (0.5 mg/mL) were first incubated with amylase (100 IU/L) for 6 and 24 h at 37° C. in PBS (pH 8.2). The endotoxin binding activity assays were then followed as described above.

[4] = system: Acinetobacter lwoffi 6056; experiment: MIC broth microdilution; type: cell-based; conditions: amylase (100 IU/L) pre-incubation time 0
Procedure: as §1, §2

[5] = system: Escherichia coli AIM-1; experiment: MIC broth microdilution; type: cell-based; conditions: amylase (100 IU/L) pre-incubation time 0
Procedure: as §1, §2

[6] = system: Providencia stuartii IR57; experiment: MIC broth microdilution; type: cell-based; conditions: amylase (100 IU/L) pre-incubation time 0
Procedure: as §1, §2

[7] = system: Acinetobacter lwoffi; experiment: MIC broth microdilution; type: cell-based; conditions: amylase (100 IU/L) pre-incubation time 0
Procedure: as §1, §2

[8] = system: Acinetobacter baumannii MDR ACB; experiment: MIC broth microdilution; type: cell-based; conditions: amylase (100 IU/L) pre-incubation time 0
Procedure: as §1, §2

[9] = system: Acinetobacter haemolyticus 1554; experiment: MIC broth microdilution; type: cell-based; conditions: amylase (100 IU/L) pre-incubation time 0
Procedure: as §1, §2

[10] = system: Escherichia coli 7273; experiment: MIC broth microdilution; type: cell-based; conditions: amylase (100 IU/L) pre-incubation time 0
Procedure: as §1, §2

[11] = system: Escherichia coli 5702; experiment: MIC broth microdilution; type: cell-based; conditions: amylase (100 IU/L) pre-incubation time 0
Procedure: as §1, §2

[12] = system: Acinetobacter baumannii; experiment: MIC broth microdilution; type: cell-based; conditions: amylase (100 IU/L) pre-incubation time 0
Procedure: as §1, §2

[13] = system: Klebsiella pneumoniae K3; experiment: MIC broth microdilution; type: cell-based; conditions: amylase (100 IU/L) pre-incubation time 0
Procedure: as §1, §2

[14] = system: Pseudomonas aeruginosa PA01; experiment: MIC broth microdilution; type: cell-based; conditions: amylase (100 IU/L) pre-incubation time 0
Procedure: as §1, §2

[15] = system: Pseudomonas aeruginosa R22 PSA; experiment: MIC broth microdilution; type: cell-based; conditions: amylase (100 IU/L) pre-incubation time 0
Procedure: as §1, §2

[16] = system: Pseudomonas aeruginosa MDR 301 PSA; experiment: MIC broth microdilution; type: cell-based; conditions: amylase (100 IU/L) pre-incubation time 0
Procedure: as §1, §2

[17] = system: Klebsiella pneumoniae KP05 506; experiment: MIC broth microdilution; type: cell-based; conditions: amylase (100 IU/L) pre-incubation time 0
Procedure: as §1, §2

[18] = system: Acinetobacter baumannii 7789; experiment: MIC broth microdilution; type: cell-based; conditions: amylase (100 IU/L) pre-incubation time 0
Procedure: as §1, §2

[19] = system: Klebsiella pneumoniae IR25; experiment: MIC broth microdilution; type: cell-based; conditions: amylase (100 IU/L) pre-incubation time 0
Procedure: as §1, §2

[20] = system: Klebsiella pneumoniae 5725; experiment: MIC broth microdilution; type: cell-based; conditions: amylase (100 IU/L) pre-incubation time 0
Procedure: as §1, §2

[21] = system: Pseudomonas aeruginosa mucoid strain; experiment: MIC broth microdilution (first mucoid strain, Table 3 r46); type: cell-based; conditions: amylase (100 IU/L) pre-incubation time 0
Procedure: as §1, §2

[22] = system: HK2 kidney cells; experiment: MTT assay, cell viability; type: cell-based, human; conditions: 72 h incubation
Procedure: The MTT assay was used to assess cell viability (72 h incubation) in a human kidney (HK2) cell line. Cells were seeded into sterile 96-well microtitre plates (1×10^5 cells/mL) in 0.1 mL/well of media (DMEM) containing FCS (10% v/v). They were allowed to adhere for 24 h. The medium was then removed and test compounds (0.2 μm filter-sterilized) were added to the cells. To study the effect of colistin, CMS, dextrin-colistin conjugate and succinoylated dextrin (8,000 g/mol, 1.1 mol % succinoylation) on cell viability, complete media (+FCS) was supplemented with a range of concentrations of each. To study the effect of ‘unmasked’ dextrin-colistin on cell viability, complete media (+FCS) was supplemented with a range of concentrations of conjugate and amylase (100 IU/L). After a further 67 h incubation, MTT (20 μL of a 5 mg/mL solution in PBS) was added to each well and the cells were incubated for a further 5 h. The medium was then removed and the precipitated formazan crystals solubilized by addition of optical grade DMSO (100 μL) over 30 min. Absorbance was measured at 540 nm using a microtitre plate reader. Cell viability was expressed as a percentage of the viability of untreated control cells. The IC50 values were expressed as mean±SEM (n=18).

| Substance | MIC [1] | % colistin release after 24 h [2] [%] | MIC [4] | MIC [5] | MIC [6] | MIC [7] | MIC [8] | MIC [9] | MIC [10] | MIC [11] | MIC [12] | MIC [13] | MIC [14] | MIC [15] | MIC [16] | MIC [17] | MIC [18] | MIC [19] | MIC [20] | MIC [21] | also measured |
| --- | --- | --- | --- | --- | --- | --- | --- | --- | --- | --- | --- | --- | --- | --- | --- | --- | --- | --- | --- | --- | --- |
| colistin | 0.008 | 100 | 0.03 | 0.01 | 0.01 | 0.25 | 0.125 | 4 | <0.5 | 0.03 | 0.03 | 0.06 | 0.06 | 0.03 | 0.125 | 0.125 | 0.03 | 0.03 | 0.03 | 0.01 | inhibition of cleavage of chromogenic substrate by E. coli LPS [3]: able to inhibit; LPS required to trigger Limulus amoebocyte lysate gelation compared to LPS in water ([3]; preincubated 3 h at 37° C.): 20 fold; IC50 (cell viability) [22]: 20 µg/mL |
| colistin methanesulfonate [CMS] | 0.25 | 23.6 | 2 | 0.25 | 1 | 4 | 4 | 8 | 2 | 1 | 4 | 2 | 1 | 0.5 | 1 | 2 | 2 | 2 | 1 | 1 | IC50 (cell viability) [22]: 25 µg/mL |
